Measured values from publication PMC7293010, “DXO/Rai1 enzymes remove 5′-end FAD and dephospho-CoA caps on RNAs” (Nucleic Acids Research, 2020).

Experiments:
SpRai1 = biological target: T1, SpRai1 (Schizosaccharomyces pombe, UniProt O13836); assay: X-ray crystal structure, crystal soaked […] h in […] ligand; type: binding; conditions: 1.9 Å; two magnesium ions observed; active site
T1 construct: gene din1; full-length, pET28a (for crystallization), E. coli BL21 (DE3) Rosetta, Ni-NTA and gel filtration
T1 sequence (O13836 1-352): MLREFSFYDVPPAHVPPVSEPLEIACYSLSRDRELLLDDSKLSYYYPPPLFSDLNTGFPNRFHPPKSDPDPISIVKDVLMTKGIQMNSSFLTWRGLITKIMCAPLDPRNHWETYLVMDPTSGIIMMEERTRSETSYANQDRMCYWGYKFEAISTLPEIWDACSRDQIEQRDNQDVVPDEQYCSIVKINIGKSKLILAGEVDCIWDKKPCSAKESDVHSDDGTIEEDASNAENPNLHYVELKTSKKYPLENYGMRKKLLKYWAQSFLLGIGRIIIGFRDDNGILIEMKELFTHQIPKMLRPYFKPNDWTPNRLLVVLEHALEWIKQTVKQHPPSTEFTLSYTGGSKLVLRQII

mDXO = biological target: T2, mDXO (Mus musculus, UniProt O70348, E192S/E234Q/E253Q); assay: X-ray crystal structure, crystal soaked in […] CaCl2 for […] h, then in […] ligand for […] h; type: binding; conditions: 1.6 Å; active site; pH 6.8, 20°C
T2 construct: gene Dxo; full-length, His tag, pET28a, E. coli BL21 (DE3) Rosetta, Ni-NTA and gel filtration; residues 1-26 with His tag and 385-397 not seen in density
T2 sequence (O70348 1-397 E192S/E234Q/E253Q): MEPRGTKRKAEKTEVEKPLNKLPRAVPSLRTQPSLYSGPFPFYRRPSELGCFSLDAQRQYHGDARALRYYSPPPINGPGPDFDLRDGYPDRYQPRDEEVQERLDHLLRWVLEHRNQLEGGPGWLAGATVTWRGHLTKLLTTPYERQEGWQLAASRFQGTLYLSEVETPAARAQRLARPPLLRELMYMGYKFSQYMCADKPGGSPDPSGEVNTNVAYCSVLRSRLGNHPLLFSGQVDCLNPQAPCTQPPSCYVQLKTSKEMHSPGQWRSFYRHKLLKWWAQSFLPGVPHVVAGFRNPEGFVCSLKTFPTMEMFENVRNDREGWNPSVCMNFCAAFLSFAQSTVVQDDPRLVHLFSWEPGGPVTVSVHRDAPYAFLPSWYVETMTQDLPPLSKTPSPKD

SMILES	X-ray crystal structure, crystal soaked 1 h in 10 mM ligand (SpRai1)	X-ray crystal structure, crystal soaked in 20 mM CaCl2 for 1 h, then in 10 mM li (mDXO)
Cc1cc2nc3c(=O)[nH]c(=O)nc-3n(C[C@H](O)[C@H](O)[C@H](O)COP(=O)(O)OP(=O)(O)OC[C@H]3O[C@@H](n4cnc5c(N)ncnc54)[C@H](O)[C@@H]3OP(=O)(O)O)c2cc1C [3′-FADP]	good-quality electron density for FADP in complex with wild-type SpRai1	
CC(C)(COP(=O)(O)OP(=O)(O)OC[C@H]1O[C@@H](n2cnc3c(N)ncnc32)[C@H](O)[C@@H]1OP(=O)(O)O)[C@@H](O)C(=O)NCCC(=O)NCCS [CoA]		crystal structure of the E192S/E234Q/E253Q mutant of mDXO in complex with CoA
